Results from patent US7582803B2 (Amgen Inc., priority 2005, dated 2009).

The compounds below were run against T1, human GPR40 (Homo sapiens, UniProt O14842) (assay: Cell-based aequorin assay). Conditions: CHO cells stably transfected with GPR40 and aequorin; 0.01% HSA; aequorin luminescence; read-out: Relative EC50.
T1 construct: expressed in transfected cells; host or cells: CHO cells
Experimental: Cell-based aequorin assays were employed to characterize the modulatory activity of compounds on the GPR40 signaling pathway. In an exemplary assay, CHO cells were stably transfected with both GPR40 and Aequorin (Euroscreen). Cells were detached from the tissue culture dish with 2 mL of trypsin (0.25% (w/v)). Trypsinization was halted with 28 mL of Hanks Buffered Salt Solution containing 20 mM Hepes (H/HBSS) and 0.01% fatty acid-free human serum albumin (HSA). Coelantrazine is added to 1 ug/mL, and the cells were incubated for 2 hours at room temperature. Compounds were dissolved in DMSO for preparation of 10 mM stock solutions. Compounds were diluted in H/HBSS containing 0.01% HSA. Serial dilutions of the test compounds were prepared to determine dose response.
Aequorin luminescence measurements were made using an EG&G Berthold 96-well luminometer, and the response was measured over a 20 second interval after cells and compounds were mixed. The maximum relative light units was plotted to determine dose response. The EC50 (effective concentration to reach 50% maximal response) was determined from the dose response plot.
Table 1 presents representative data (EC50 values) obtained for exemplary compounds of the invention for the relative activation of human GPR40. […]

T1 sequence (O14842 whole entry): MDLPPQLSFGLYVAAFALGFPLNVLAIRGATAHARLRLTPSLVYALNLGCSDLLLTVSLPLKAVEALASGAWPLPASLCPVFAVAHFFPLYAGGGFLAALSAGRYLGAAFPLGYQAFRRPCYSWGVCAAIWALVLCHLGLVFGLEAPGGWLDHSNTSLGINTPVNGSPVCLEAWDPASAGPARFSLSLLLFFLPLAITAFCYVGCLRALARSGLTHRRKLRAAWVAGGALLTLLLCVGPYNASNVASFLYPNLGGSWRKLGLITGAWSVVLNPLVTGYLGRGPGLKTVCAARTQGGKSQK

Structure (SMILES) | EC50
CC#C[C@@H](CC(=O)O)c1ccc(OC2CCc3cc(F)ccc32)cc1 (stereo partly drawn) [Example 14, (3S)-3-(4-(5-Fluoro-2,3-dihydro-1H-inden-1-yloxy)phenyl)hex-4-ynoic acid] | 0.01 to 0.1 µM
O=C(O)CC(c1ccc(OC2Cc3ccccc3C2)cc1)c1cc(F)ccc1F (racemic) [Example 37, (+/−)3-(2,5-Difluorophenyl)-3-(4-(2,3-dihydro-1H-inden-2-yloxy)phenyl)propanoic acid] | 0.1 to 1 µM
CC#C[C@@H](CC(=O)O)c1ccc(OC2CCc3cc(-c4cc(C)ccc4OCCCC)ccc32)cc1 (stereo partly drawn) [Example 3, (3S)-3-(4-(5-(2-Butoxy-5-methylphenyl)-2,3-dihydro-1H-inden-1-yloxy)phenyl)hex-4-ynoic acid] | 0.01 to 0.1 µM
CC#C[C@@H](CC(=O)O)c1ccc(OC2Cc3ccccc3C2)cc1 [Example 27, (3S)-3-[4-(Indan-2-yloxy)-phenyl]-hex-4-ynoic acid] | 0.01 to 0.1 µM
CC#C[C@@H](CC(=O)O)c1ccc(OC2CCCc3c(Br)cccc32)cc1 (stereo partly drawn) [Example 25, (3S)-3-[4-(5-Bromo-1,2,3,4-tetrahydro-naphthalen-1-yloxy)-phenyl]-hex-4-ynoic acid] | 0.01 to 0.1 µM
CC#C[C@@H](CC(=O)O)c1ccc(OC2CCc3ccc(-c4ccc(C(F)(F)F)cc4)cc32)cc1 (stereo partly drawn) [Example 11, (3S)-3-(4-(6-(4-(trifluoromethyl)phenyl)-2,3-dihydro-1H-inden-1-yloxy)phenyl)hex-4-ynoic acid] | 0.01 to 0.1 µM
O=C(O)CC(c1ccc(OC2CCC(c3ccccc3)CC2)cc1)c1cccs1 (racemic) [Example 31, (+/−)-3-(4-(4-Phenylcyclohexyloxy)phenyl)-3-(thiophen-2-yl)propanoic acid] | 1 to 10 µM
CC#C[C@@H](CC(=O)O)c1ccc(OC2CCc3c(-c4ccc(C(F)(F)F)cc4)cccc32)cc1 (stereo partly drawn) [Example 7] | 0.01 to 0.1 µM
CC#C[C@@H](CC(=O)O)c1ccc(OC2CCc3c(-c4ccc(OC(F)(F)F)cc4)cccc32)cc1 (stereo partly drawn) [Example 6, (3S)-3-{4-[4-(4-Trifluoromethoxy-phenyl)-indan-1-yloxy]-phenyl}-hex-4-ynoic acid] | 0.01 to 0.1 µM
CC#C[C@@H](CC(=O)O)c1ccc(OC2CCc3cc(Br)ccc32)cc1 (stereo partly drawn) [Example 2, (3S)-3-[4-(5-Bromo-indan-1-yloxy)-phenyl]-hex-4-ynoic acid] | 0.01 to 0.1 µM
CC#C[C@@H](CC(=O)O)c1ccc(OC2CCc3c(-c4cc(C)ccc4OCCCC)cccc32)cc1 (stereo partly drawn) [Example 8, (3S)-3-{4-[4-(2-Butoxy-5-methyl-phenyl)-indan-1-yloxy]-phenyl}-hex-4-ynoic acid] | 0.01 to 0.1 µM
CC#C[C@@H](CC(=O)O)c1ccc(OC2CCCc3ccccc32)cc1 (stereo partly drawn) [Example 24, (3S)-3-[4-(1,2,3,4-Tetrahydro-naphthalen-1-yloxy)-phenyl]-hex-4-ynoic acid] | 0.01 to 0.1 µM
CC#C[C@@H](CC(=O)O)c1ccc(O[C@@H]2CCc3cc(Br)ccc32)cc1 (single isomer, unassigned) [Example 44] | 0.01 to 0.1 µM
CC#C[C@@H](CC(=O)O)c1ccc(OC2CCc3ccc(OC)cc32)cc1 (stereo partly drawn) [Example 17, (3S)-3-[4-(6-Methoxy-indan-1-yloxy)-phenyl]-hex-4-ynoic acid] | 0.01 to 0.1 µM
CC#C[C@@H](CC(=O)O)c1ccc(OC2CCc3cc(OC)ccc32)cc1 (stereo partly drawn) [Example 18, (3S)-3-[4-(5-Methoxy-indan-1-yloxy)-phenyl]-hex-4-ynoic acid] | 0.01 to 0.1 µM

Other lines, results leading:

EC50 | Structure (SMILES)
0.1 to 1 µM | CCc1cc2c(cc1COc1ccc([C@H](CC(=O)O)c3nccn3C)cc1)C(C)(C)CCC2(C)C [Example 94, (S)-3-(4-((3-Ethyl-5,5,8,8-tetramethyl-5,6,7,8-tetrahydronaphthalen-2-yl)methoxy)phenyl)-3-(1-methyl-1H-imidazol-2-yl)propanoic acid]
0.1 to 1 µM | Cn1ccnc1[C@@H](CC(=O)O)c1ccc(OCc2ccc3c(c2)C(C)(C)CCC3)cc1 [Example 86, (S)-3-(4-((8,8-Dimethyl-5,6,7,8-tetrahydronaphthalen-2-yl)methoxy)phenyl)-3-(1-methyl-1H-imidazol-2-yl)propanoic acid]
0.1 to 1 µM | CC1(C)CCC(C)(C)c2cc(COc3ccc(C(CC(=O)O)C4=NOCC4)cc3)ccc21 (stereo not drawn) [Example 85, 3-(4,5-Dihydroisoxazol-3-yl)-3-(4-((5,5,8,8-tetramethyl-5,6,7,8-tetrahydronaphthalen-2-yl)methoxy)phenyl)propanoic acid]
1 to 10 µM | CC#C[C@H](CC(=O)O)c1ccc(OCC2CCCCC2)cc1 [Example 68, (R)-3-(4-(Cyclohexylmethoxy)phenyl)hex-4-ynoic acid]
1 to 10 µM | COc1ccc(F)c(-c2ccc3c(c2)CCC3Oc2ccc([C@H](C=C(C)C)CC(=O)O)cc2)c1 (stereo partly drawn) [Example 56]
> 10 µM | CC#C[C@H](CC(=O)O)c1ccc(OC2CCc3cc(-c4cccc(OC)c4F)ccc32)cc1 (stereo partly drawn) [Example 67, (3R)-3-(4-(5-(2-Fluoro-3-methoxyphenyl)-2,3-dihydro-1H-inden-1-yloxy)phenyl)hex-4-ynoic acid]
0.1 to 1 µM | Cc1cc2c(cc1COc1ccc([C@H](CC(=O)O)c3nccn3C)cc1)C(C)(C)CCC2(C)C [Example 93, (S)-3-(4-((3-Methyl-5,5,8,8-tetramethyl-5,6,7,8-tetrahydronaphthalen-2-yl)methoxy)phenyl)-3-(1-methyl-1H-imidazol-2-yl)propanoic acid]
> 10 µM | CC#C[C@H](CC(=O)O)c1ccc(OC2CCc3cc(-c4ccccc4OCC)ccc32)cc1 (stereo partly drawn) [Example 65, (3R)-3-(4-(5-(2-Ethoxyphenyl)-2,3-dihydro-1H-inden-1-yloxy)phenyl)hex-4-ynoic acid]
0.01 to 0.1 µM | Cn1nncc1[C@@H](CC(=O)O)c1ccc(OCc2ccc3c(c2)C(C)(C)CCC3(C)C)cc1 [Example 73, (S)-3-(3-methyl-3H-1,2,3-triazol-4-yl)-3-(4-((5,5,8,8-tetramethyl-5,6,7,8-tetrahydronaphthalen-2-yl)methoxy)phenyl)propanoic acid]
> 10 µM | C[C@H](Oc1ccc([C@H](CC(=O)O)c2nccn2C)cc1)c1ccc2c(c1)C(C)(C)CCC2(C)C [Example 87, (3S)-3-(1-Methyl-1H-imidazol-2-yl)-3-(4-(1-(5,5,8,8-tetramethyl-5,6,7,8-tetrahydronaphthalen-2-yl)ethoxy)phenyl)propanoic acid]
0.1 to 1 µM | CC1(C)CCC(C)(C)c2cc(COc3ccc([C@H](CC(=O)O)c4cnco4)cc3)ccc21 [Example 75, (S)-3-(Oxazol-5-yl)-3-(4-((5,5,8,8-tetramethyl-5,6,7,8-tetrahydronaphthalen-2-yl)methoxy)phenyl)propanoic acid]
0.01 to 0.1 µM | CC#C[C@@H](CC(=O)O)c1ccc(OC2CCc3cc(-c4cccc(OC(F)(F)F)c4)ccc32)cc1 (stereo partly drawn) [Example 50, (3S)-3-(4-(5-(3-(Trifluoromethoxy)phenyl)-2,3-dihydro-1H-inden-1-yloxy)phenyl)hex-4-ynoic acid]
> 10 µM | CC#C[C@H](CC(=O)O)c1ccc(OC2CCc3cc(-c4cc(OCC)ccc4F)ccc32)cc1 (stereo partly drawn) [Example 66, (3R)-3-(4-(5-(5-Ethoxy-2-fluorophenyl)-2,3-dihydro-1H-inden-1-yloxy)phenyl)hex-4-ynoic acid]
0.01 to 0.1 µM | CC#C[C@@H](CC(=O)O)c1ccc(O[C@H]2CCc3cc(Br)ccc32)cc1 [Example 45, (S)-3-(4-((S)-5-bromo-2,3-dihydro-1H-inden-1-yloxy)phenyl)hex-4-ynoic acid]
1 to 10 µM | O=C(O)CC(c1ccc(OC2CCCCc3ccccc32)cc1)c1cccs1 (racemic) [Example 49, (+/−)3-(4-(6,7,8,9-Tetrahydro-5H-benzo[7]annulen-5-yloxy)phenyl)-3-(thiophen-2-yl)propanoic acid]
> 10 µM | CC#C[C@H](CC(=O)O)c1ccc(OC2CCc3cc(-c4ccc5c(c4)OCO5)ccc32)cc1 (stereo partly drawn) [Example 60, (3R)-3-(4-(5-(Benzo[d][1,3]dioxol-5-yl)-2,3-dihydro-1H-inden-1-yloxy)phenyl)hex-4-ynoic acid]
0.1 to 1 µM | Cn1ncnc1[C@@H](CC(=O)O)c1ccc(OCc2ccc3c(c2)C(C)(C)CCC3(C)C)cc1 [Example 72, (S)-3-(2-Methyl-2H-[1,2,4]triazol-3-yl)-3-[4-(5,5,8,8-tetramethyl-5,6,7,8-tetrahydro-naphthalen-2-ylmethoxy)-phenyl]-propionic acid]
1 to 10 µM | Cn1ccnc1[C@@H](CC(=O)O)c1ccc(OC2CCc3cc(Cl)ccc32)cc1 (stereo partly drawn) [Example 58, (3S)-3-(4-(5-Chloro-2,3-dihydro-1H-inden-1-yloxy)phenyl)-3-(1-methyl-1H-imidazol-2-yl)propanoic acid]
1 to 10 µM | CC1(C)CCC(C)(C)c2cc(COc3ccc(C(CC(=O)O)c4cncnc4)cc3)ccc21 (racemic) [Example 79, (R/S)-3-Pyrimidin-5-yl-3-[4-(5,5,8,8-tetramethyl-5,6,7,8-tetrahydro-naphthalen-2-ylmethoxy)-phenyl]-propionic acid]
0.1 to 1 µM | Cn1ccnc1[C@@H](CC(=O)O)c1ccc(OCc2ccc3c(c2)C(C)(C)CCC3(C)C)cc1 [Example 71, (S)-3-(1-Methyl-1H-imidazol-2-yl)-3-[4-(5,5,8,8-tetramethyl-5,6,7,8-tetrahydro-naphthalen-2-ylmethoxy)-phenyl]-propionic acid]
0.1 to 1 µM | CC#C[C@@H](CC(=O)O)c1ccc(OCCC2CCCC2)cc1 [Example 70, (S)-3-(4-(2-cyclopentylethoxy)phenyl)hex-4-ynoic acid]
